Here are results for seven compounds from patent publication US7138361B2, “Herbicidal heterocycles” (E. I. du Pont de Nemours and Company, priority 2000, dated 2006).

Holding throughout (assay): Test B preemergence
Type in all cases: in vivo

The test system of experiment [1] is barnyardgrass (Echinochloa crus-galli). In outline:
(§1)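 Seeds were planted and sprayed preemergence with test chemical in a non-phytotoxic solvent mixture containing surfactant; postemergence plants (2 to 18 cm, 1- to 4-leaf stage) received the same formulation. Greenhouse hold 13 to 15 days, then visual rating versus untreated controls on a 0–100 scale (0 no effect, 100 complete control).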

The subject of experiment [2] is crabgrass (Digitaria sanguinalis). The essentials: as §1
Experiment [3] concerns velvetleaf (Abutilon theophrasti). The essentials:
as §1

The subject of experiment [4] is Surinam grass (Brachiaria decumbens). In outline:
as §1

Experiment [5] concerns corn (Zea mays). The essentials: as §1
For experiment [6], the system named is giant foxtail (Setaria faberii). In outline:
as §1

For experiment [7], the system named is rice (Oryza saliva). In outline: as §1
Experiment [8] deals with cocklebur (Xanthium strumarium). In outline:
as §1

The test system of experiment [9] is morning glory (Ipomoea hederacea). The essentials: as §1
Experiment [10] deals with lambsquarters (Chenopodium album). In outline:
as §1

Experiment [11] has as its system pigweed (Amaranthus retroflexus). The essentials: as §1
[12] abbreviates: Preemergence, Rate 500 g/ha, scale 0 to 100, 0 no effect, 100 complete control.
Setting [13] is: preemergence, Rate 125 g/ha, scale 0 to 100, 0 no effect, 100 complete control.
Where [14] appears, read: preemergence, Rate 125 g/ha, scale of 0 to 100 where 0 is no effect and 100 is complete control, 13 to 15 days.

Turning to `CC(C)(C)c1nn(C2CCN(c3cccc(C(F)(F)F)c3)C2=O)cc1Cl` (centres unmarked) [Compound 14], the “Plant response rating, Barnyardgrass” value in experiment [1] (setting [12]) and in [1] (setting [13]) was 0 throughout. The “Plant response rating, Crabgrass” value in experiment [2] (setting [12]) and in [2] (setting [13]) was 0 each time. The “Plant response rating, Velvetleaf” value in experiment [3] (setting [12]) and in experiment [3] (setting [13]) was 0 throughout. Besides, the “Plant response rating, Surinam grass” value in experiment [4] (setting [12]) and in experiment [4] (setting [13]) was 0 each time. Further, the “Plant response rating, Corn” value in [5] (setting [12]) and in experiment [5] (setting [13]) was 0 in each case. For the same compound, the “Plant response rating, Foxtail, Giant” value in experiment [6] (setting [12]) and in [6] (setting [13]) was 0 throughout. Besides, the “Plant response rating, Rice” value in experiment [7] (setting [12]) and in experiment [7] (setting [13]) was 0 in each case. Also, the “Plant response rating, Cocklebur” value in [8] (setting [12]) and in experiment [8] (setting [13]) was 0 each time. The “Plant response rating, Morningglory” value in experiment [9] (setting [12]) and in experiment [9] (setting [13]) was 0 throughout. The “Plant response rating, Lambsquarters” value in [10] (setting [12]) and in experiment [10] (setting [13]) was 0 throughout. Moreover, the “Plant response rating, Pigweed” value in experiment [11] (setting [12]) and in experiment [11] (setting [13]) was 0 each time.

Take `O=C1C(n2cccn2)CCN1c1cccc(C(F)(F)F)c1` (centres unmarked) [Compound 15]: the “Plant response rating, Barnyardgrass” value in experiment [1] (setting [12]) and in experiment [1] (setting [13]) was 0 each time. Moreover, the “Plant response rating, Crabgrass” value in experiment [2] (setting [12]) and in experiment [2] (setting [13]) was 0 throughout. Further, the “Plant response rating, Velvetleaf” value in [3] (setting [12]) amounted to 70; in [3] (setting [13]) it was 50. Besides, the “Plant response rating, Surinam grass” value in [4] (setting [12]) was found to be 20; in experiment [4] (setting [13]), 0. The “Plant response rating, Corn” value in [5] (setting [12]) and in experiment [5] (setting [13]) was 0 each time. Further, the “Plant response rating, Foxtail, Giant” value in [6] (setting [12]) and in experiment [6] (setting [13]) was 0 throughout. For the same compound, the “Plant response rating, Rice” value in [7] (setting [12]) and in [7] (setting [13]) was 0 in each case. Besides, the “Plant response rating, Cocklebur” value in experiment [8] (setting [12]) and in experiment [8] (setting [13]) was 0 in each case. Further, the “Plant response rating, Morningglory” value in [9] (setting [12]) is 30; in experiment [9] (setting [13]), 0. Also, the figures for the “Plant response rating, Lambsquarters” value in experiment [10] (setting [12]) and in [10] (setting [13]) were 60 and 0, respectively. The “Plant response rating, Pigweed” value in experiment [11] (setting [12]) and in experiment [11] (setting [13]) was 0 in each case.

Regarding `Cc1ccn(C2CCN(c3cccc(C(F)(F)F)c3)C2=O)n1` (centres unmarked) [Compound 16], the “Plant response rating, Barnyardgrass” value in [1] (setting [12]) and in [1] (setting [13]) was 0 throughout. Also, the “Plant response rating, Crabgrass” value in experiment [2] (setting [12]) and in experiment [2] (setting [13]) was 0 each time. For the same compound, the entries for the “Plant response rating, Velvetleaf” value in experiment [3] (setting [12]) and in experiment [3] (setting [13]) were 20 and 0, respectively. The “Plant response rating, Surinam grass” value in experiment [4] (setting [12]) and in [4] (setting [13]) was 0 in each case. Also, the “Plant response rating, Corn” value in experiment [5] (setting [12]) and in [5] (setting [13]) was 0 throughout. The “Plant response rating, Foxtail, Giant” value in experiment [6] (setting [12]) and in experiment [6] (setting [13]) was 0 in each case. In addition, the “Plant response rating, Rice” value in [7] (setting [12]) and in experiment [7] (setting [13]) was 0 each time. Further, the “Plant response rating, Cocklebur” value in experiment [8] (setting [12]) and in experiment [8] (setting [13]) was 0 in each case. In addition, the “Plant response rating, Morningglory” value in experiment [9] (setting [12]) and in experiment [9] (setting [13]) was 0 each time. Further, the “Plant response rating, Lambsquarters” value in experiment [10] (setting [12]) and in [10] (setting [13]) was 0 each time. The “Plant response rating, Pigweed” value in experiment [11] (setting [12]) and in [11] (setting [13]) was 0 in each case.

Take `CCC(C)c1ccn(C2OCN(c3cccc(C(F)(F)F)c3)C2=O)n1` (centres unmarked) [Compound 24]: the results for the “Plant response rating, Barnyardgrass” value in experiment [1] (setting [12]) and in experiment [1] (setting [13]) were 100 and 20, respectively. Moreover, the “Plant response rating, Crabgrass” value in experiment [2] (setting [12]) and in experiment [2] (setting [13]) was 100 throughout. For the same compound, the “Plant response rating, Velvetleaf” value in experiment [3] (setting [12]) and in experiment [3] (setting [13]) was 0 in each case. Also, the “Plant response rating, Surinam grass” value in experiment [4] (setting [12]) is on record as 80; in [4] (setting [13]) it was 20. Moreover, the entries for the “Plant response rating, Corn” value in experiment [5] (setting [12]) and in experiment [5] (setting [13]) were 20 and 0, respectively. For the same compound, the entries for the “Plant response rating, Foxtail, Giant” value in experiment [6] (setting [12]) and in experiment [6] (setting [13]) were 100 and 90, respectively. In addition, the “Plant response rating, Rice” value in [7] (setting [12]) and in experiment [7] (setting [13]) was 0 in each case. The “Plant response rating, Cocklebur” value in experiment [8] (setting [12]) and in [8] (setting [13]) was 0 throughout. For the same compound, the “Plant response rating, Morningglory” value in experiment [9] (setting [12]) and in experiment [9] (setting [13]) was 0 throughout. Besides, the “Plant response rating, Lambsquarters” value in experiment [10] (setting [12]) and in experiment [10] (setting [13]) was 100 each time. For the same compound, the “Plant response rating, Pigweed” value in experiment [11] (setting [12]) and in experiment [11] (setting [13]) was 100 throughout.

As to `O=C1C(n2ccc(C3CC3)n2)SCN1c1cccc(C(F)(F)F)c1` (centres unmarked) [Compound 26], the “Plant response rating, Barnyardgrass” value in [1] (setting [12]) and in [1] (setting [13]) was 100 each time. Also, the “Plant response rating, Crabgrass” value in [2] (setting [12]) and in experiment [2] (setting [13]) was 100 throughout. In addition, the “Plant response rating, Velvetleaf” value in experiment [3] (setting [12]) and in [3] (setting [13]) was 0 in each case. In addition, the “Plant response rating, Surinam grass” value in experiment [4] (setting [12]) was 70; in experiment [4] (setting [13]), 40. The “Plant response rating, Corn” value is 70 in [5] (setting [12]) and 10 in experiment [5] (setting [13]). The “Plant response rating, Foxtail, Giant” value in experiment [6] (setting [12]) and in experiment [6] (setting [13]) was 100 throughout. Further, the “Plant response rating, Rice” value in experiment [7] (setting [12]) worked out at 80; in [7] (setting [13]), 40. Further, the “Plant response rating, Cocklebur” value in experiment [8] (setting [12]) and in experiment [8] (setting [13]) was 0 in each case. Further, the “Plant response rating, Morningglory” value in experiment [9] (setting [12]) and in [9] (setting [13]) was 0 in each case. Further, the “Plant response rating, Lambsquarters” value in experiment [10] (setting [12]) and in [10] (setting [13]) was 100 in each case. Further, the “Plant response rating, Pigweed” value in [11] (setting [12]) and in experiment [11] (setting [13]) was 100 in each case.

As for `CCC(CC)c1ccn(C2OCN(c3cccc(OC(F)(F)F)c3)C2=O)n1` (centres unmarked) [Compound 68], the “Plant response rating, Barnyardgrass” value in experiment [1] (setting [12]) and in [1] (setting [14]) was 100 throughout. The “Plant response rating, Crabgrass” value in experiment [2] (setting [12]) is on record as 20. In addition, the “Plant response rating, Velvetleaf” value in experiment [3] (setting [12]) and in experiment [3] (setting [14]) was 0 in each case. For the same compound, the “Plant response rating, Surinam grass” value in experiment [4] (setting [12]) and in experiment [4] (setting [14]) was 0 in each case. Also, the “Plant response rating, Corn” value in experiment [5] (setting [12]) was 20; in experiment [5] (setting [14]), 0. For the same compound, the “Plant response rating, Foxtail, Giant” value in experiment [6] (setting [12]) is listed as 20. In addition, the figures for the “Plant response rating, Rice” value in [7] (setting [12]) and in experiment [7] (setting [14]) were 30 and 0, respectively. Besides, the “Plant response rating, Cocklebur” value in experiment [8] (setting [12]) and in [8] (setting [14]) was 0 throughout. Further, the “Plant response rating, Morningglory” value in experiment [9] (setting [12]) and in experiment [9] (setting [14]) was 0 each time. The “Plant response rating, Lambsquarters” value in experiment [10] (setting [12]) and in experiment [10] (setting [14]) was 100 throughout. In addition, the “Plant response rating, Pigweed” value in [11] (setting [12]) and in experiment [11] (setting [14]) was 100 in each case.

As for `CC1(c2ccn(C3OCN(c4cccc(OC(F)(F)F)c4)C3=O)n2)CC1` (centres unmarked) [Compound 69], the results for the “Plant response rating, Barnyardgrass” value in [1] (setting [12]) and in [1] (setting [14]) were 40 and 20, respectively. For the same compound, the “Plant response rating, Crabgrass” value in experiment [2] (setting [12]) and in experiment [2] (setting [14]) was 0 throughout. Further, the “Plant response rating, Velvetleaf” value in experiment [3] (setting [12]) and in experiment [3] (setting [14]) was 0 throughout. Further, the “Plant response rating, Surinam grass” value in [4] (setting [12]) and in [4] (setting [14]) was 20 in each case. For the same compound, the “Plant response rating, Corn” value in experiment [5] (setting [12]) and in [5] (setting [14]) was 0 each time. Further, the “Plant response rating, Foxtail, Giant” value in [6] (setting [12]) and in [6] (setting [14]) was 0 throughout. In addition, the “Plant response rating, Rice” value in experiment [7] (setting [12]) and in [7] (setting [14]) was 0 throughout. Further, the “Plant response rating, Cocklebur” value in [8] (setting [12]) worked out at 20; in [8] (setting [14]), 0. The “Plant response rating, Morningglory” value in experiment [9] (setting [12]) and in experiment [9] (setting [14]) was 0 throughout. The “Plant response rating, Lambsquarters” value in experiment [10] (setting [12]) is on record as 100; in [10] (setting [14]), 90. Moreover, the “Plant response rating, Pigweed” value in experiment [11] (setting [12]) was found to be 90; in experiment [11] (setting [14]), 60.
